Organism: Rattus norvegicus
Assay: Open TG-GATES - Regimen: Daily Repeat
Format: toxicity, organism-based, Sprague-Dawley
Parameters: regimen Daily Repeat, gender Male, age 6 weeks
Settings: in vivo, po, 0 mg/kg, route gavage, dose level Control; for APTT / Bas / Eos / Fbg / Hb / Ht / Lym / MCH / MCHC / MCV / Mono / Neu / PT / Plat / RBC / Ret / WBC: tissue Blood; for KIDNEY_L / KIDNEY_R / KIDNEY_TOTAL: tissue Kidney; for LIVER: tissue Liver; for A/G / ALP / ALT / AST / BUN / CRE / Ca / Cl / DBIL / GLC / IP / K / LDH / Na / PL / RALB / TBIL / TC / TG / TP / gamma-GTP: tissue Plasma

For `CCC1(c2ccccc2)C(=O)NC(=O)NC1=O` [PHENOBARBITAL], the TERMINAL_BW (72 h, time 3 day) was 222.1 g, the APTT (72 h, time 3 day) was 15.6 s and the Bas (72 h, time 3 day) was 0%. For the same compound, the Eos (72 h, time 3 day) was 0.6%, the Fbg (72 h, time 3 day) was 225 mg/dL and the Hb (72 h, time 3 day) was 13.2 g/dL. It also gave a Ht (72 h, time 3 day) of 39.4%, a Lym (72 h, time 3 day) of 76.8% and an MCH (72 h, time 3 day) of 22.4 pg. For the same compound, the MCHC (72 h, time 3 day) was 33.6%, the MCV (72 h, time 3 day) was 66.9 fL and the Mono (72 h, time 3 day) was 7.4%. It also gave a Neu (72 h, time 3 day) of 15.2%, a PT (72 h, time 3 day) of 12 s and a Plat (72 h, time 3 day) of 126.6 x10_4/uL. It also gave an RBC (72 h, time 3 day) of 589.6 x10_4/ul, a Ret (72 h, time 3 day) of 7.7% and a WBC (72 h, time 3 day) of 129.8 x10_2/uL. For the same compound, the KIDNEY_L (72 h, time 3 day) was 0.9 g, the KIDNEY_R (72 h, time 3 day) was 1 g and the KIDNEY_TOTAL (72 h, time 3 day) was 1.9 g. The LIVER (72 h, time 3 day) was 11.2 g, the A/G (72 h, time 3 day) was 1.6 and the ALP (72 h, time 3 day) was 912.8 IU/L. It also gave an ALT (72 h, time 3 day) of 34 IU/L, an AST (72 h, time 3 day) of 61.4 IU/L and a BUN (72 h, time 3 day) of 16 mg/dL. For the same compound, the CRE (72 h, time 3 day) was 0.5 mg/dL, the Ca (72 h, time 3 day) was 10.8 mg/dL and the Cl (72 h, time 3 day) was 106.6 meq/L. For the same compound, the DBIL (72 h, time 3 day) was 0.01 mg/dL, the GLC (72 h, time 3 day) was 201.8 mg/dL and the IP (72 h, time 3 day) was 7.9 mg/dL. The K (72 h, time 3 day) was 4.9 meq/L, the LDH (72 h, time 3 day) was 84.2 IU/L and the Na (72 h, time 3 day) was 139.4 meq/L. It also gave a PL (72 h, time 3 day) of 158.6 mg/dL, an RALB (72 h, time 3 day) of 3.6 g/dL and a TBIL (72 h, time 3 day) of 0.4 mg/dL. The TC (72 h, time 3 day) was 80.2 mg/dL, the TG (72 h, time 3 day) was 142.6 mg/dL and the TP (72 h, time 3 day) was 5.9 g/dL. It also gave a gamma-GTP (72 h, time 3 day) of 1.8 IU/L, a TERMINAL_BW ([…], time 7 day) of 254.1 g and a TERMINAL_BW ([…], time 14 day) of 296 g. The TERMINAL_BW ([…], time 28 day) was 396.2 g, the APTT ([…], time 7 day) was 15.9 s and the Bas ([…], time 7 day) was 0%. The Eos ([…], time 7 day) was 0.8%, the Fbg ([…], time 7 day) was 224.8 mg/dL and the Hb ([…], time 7 day) was 14.2 g/dL. It also gave a Ht ([…], time 7 day) of 42.7%, a Lym ([…], time 7 day) of 82.2% and an MCH ([…], time 7 day) of 21.9 pg. The MCHC ([…], time 7 day) was 33.4%, the MCV ([…], time 7 day) was 65.5 fL and the Mono ([…], time 7 day) was 6.8%. It also gave a Neu ([…], time 7 day) of 10.4%, a PT ([…], time 7 day) of 11.9 s and a Plat ([…], time 7 day) of 110.9 x10_4/uL. The RBC ([…], time 7 day) was 652 x10_4/ul, the Ret ([…], time 7 day) was 6.1% and the WBC ([…], time 7 day) was 125.6 x10_2/uL. The APTT ([…], time 14 day) was 16.5 s, the Bas ([…], time 14 day) was 0% and the Eos ([…], time 14 day) was 0.4%. The Fbg ([…], time 14 day) was 241.4 mg/dL, the Hb ([…], time 14 day) was 14.7 g/dL and the Ht ([…], time 14 day) was 44.1%. For the same compound, the Lym ([…], time 14 day) was 88.2%, the MCH ([…], time 14 day) was 20.6 pg and the MCHC ([…], time 14 day) was 33.4%. It also gave an MCV ([…], time 14 day) of 61.9 fL, a Mono ([…], time 14 day) of 3.6% and a Neu ([…], time 14 day) of 7.8%. For the same compound, the PT ([…], time 14 day) was 11.6 s, the Plat ([…], time 14 day) was 113.2 x10_4/uL and the RBC ([…], time 14 day) was 713.2 x10_4/ul. The Ret ([…], time 14 day) was 5.1%, the WBC ([…], time 14 day) was 153.7 x10_2/uL and the APTT ([…], time 28 day) was 17 s. For the same compound, the Bas ([…], time 28 day) was 0%, the Eos ([…], time 28 day) was 0.8% and the Fbg ([…], time 28 day) was 236 mg/dL. It also gave a Hb ([…], time 28 day) of 14.8 g/dL, a Ht ([…], time 28 day) of 44.6% and a Lym ([…], time 28 day) of 84.4%. For the same compound, the MCH ([…], time 28 day) was 19.3 pg, the MCHC ([…], time 28 day) was 33.2% and the MCV ([…], time 28 day) was 58.2 fL. For the same compound, the Mono ([…], time 28 day) was 5.6%, the Neu ([…], time 28 day) was 9.4% and the PT ([…], time 28 day) was 12 s. For the same compound, the Plat ([…], time 28 day) was 109 x10_4/uL, the RBC ([…], time 28 day) was 766 x10_4/ul and the Ret ([…], time 28 day) was 2.6%. It also gave a WBC ([…], time 28 day) of 129.1 x10_2/uL, a KIDNEY_L ([…], time 7 day) of 1 g and a KIDNEY_R ([…], time 7 day) of 1 g. The KIDNEY_TOTAL ([…], time 7 day) was 2.1 g, the KIDNEY_L ([…], time 14 day) was 1.1 g and the KIDNEY_R ([…], time 14 day) was 1.1 g. For the same compound, the KIDNEY_TOTAL ([…], time 14 day) was 2.2 g, the KIDNEY_L ([…], time 28 day) was 1.4 g and the KIDNEY_R ([…], time 28 day) was 1.4 g. It also gave a KIDNEY_TOTAL ([…], time 28 day) of 2.8 g, an LIVER ([…], time 7 day) of 12.4 g and an LIVER ([…], time 14 day) of 13.5 g. The LIVER ([…], time 28 day) was 16.7 g, the A/G ([…], time 7 day) was 1.5 and the ALP ([…], time 7 day) was 1114.2 IU/L. For the same compound, the ALT ([…], time 7 day) was 32 IU/L, the AST ([…], time 7 day) was 62 IU/L and the BUN ([…], time 7 day) was 19.2 mg/dL. It also gave a CRE ([…], time 7 day) of 0.5 mg/dL, a Ca ([…], time 7 day) of 10.9 mg/dL and a Cl ([…], time 7 day) of 104.6 meq/L. The DBIL ([…], time 7 day) was 0.054 mg/dL, the GLC ([…], time 7 day) was 206.4 mg/dL and the IP ([…], time 7 day) was 7.9 mg/dL. The K ([…], time 7 day) was 4.9 meq/L, the LDH ([…], time 7 day) was 99.8 IU/L and the Na ([…], time 7 day) was 139.4 meq/L. The PL ([…], time 7 day) was 158.2 mg/dL, the RALB ([…], time 7 day) was 3.5 g/dL and the TBIL ([…], time 7 day) was 0.3 mg/dL. It also gave a TC ([…], time 7 day) of 73 mg/dL, a TG ([…], time 7 day) of 150 mg/dL and a TP ([…], time 7 day) of 5.9 g/dL. It also gave a gamma-GTP ([…], time 7 day) of 1.4 IU/L, an A/G ([…], time 14 day) of 1.5 and an ALP ([…], time 14 day) of 764.6 IU/L. The ALT ([…], time 14 day) was 31.4 IU/L, the AST ([…], time 14 day) was 63.4 IU/L and the BUN ([…], time 14 day) was 19 mg/dL. The CRE ([…], time 14 day) was 0.6 mg/dL, the Ca ([…], time 14 day) was 10.6 mg/dL and the Cl ([…], time 14 day) was 105.4 meq/L. It also gave a DBIL ([…], time 14 day) of 0.002 mg/dL, a GLC ([…], time 14 day) of 207.8 mg/dL and an IP ([…], time 14 day) of 8.4 mg/dL. For the same compound, the K ([…], time 14 day) was 4.5 meq/L, the LDH ([…], time 14 day) was 102.4 IU/L and the Na ([…], time 14 day) was 141.4 meq/L. It also gave a PL ([…], time 14 day) of 159.4 mg/dL, an RALB ([…], time 14 day) of 3.8 g/dL and a TBIL ([…], time 14 day) of 0.2 mg/dL. For the same compound, the TC ([…], time 14 day) was 75.4 mg/dL, the TG ([…], time 14 day) was 138.6 mg/dL and the TP ([…], time 14 day) was 6.3 g/dL. It also gave a gamma-GTP ([…], time 14 day) of 0.8 IU/L, an A/G ([…], time 28 day) of 1.5 and an ALP ([…], time 28 day) of 596.8 IU/L. The ALT ([…], time 28 day) was 29.6 IU/L, the AST ([…], time 28 day) was 56.2 IU/L and the BUN ([…], time 28 day) was 20 mg/dL. For the same compound, the CRE ([…], time 28 day) was 0.4 mg/dL, the Ca ([…], time 28 day) was 10.4 mg/dL and the Cl ([…], time 28 day) was 106.4 meq/L. For the same compound, the DBIL ([…], time 28 day) was 0.006 mg/dL, the GLC ([…], time 28 day) was 201 mg/dL and the IP ([…], time 28 day) was 8 mg/dL. For the same compound, the K ([…], time 28 day) was 4.5 meq/L, the LDH ([…], time 28 day) was 86 IU/L and the Na ([…], time 28 day) was 140.4 meq/L. The PL ([…], time 28 day) was 165.8 mg/dL, the RALB ([…], time 28 day) was 3.9 g/dL and the TBIL ([…], time 28 day) was 0.3 mg/dL. The TC ([…], time 28 day) was 76.4 mg/dL, the TG ([…], time 28 day) was 213.2 mg/dL and the TP ([…], time 28 day) was 6.5 g/dL. The gamma-GTP ([…], time 28 day) was 1.4 IU/L.

Reference: ChEMBL document CHEMBL3885861, “Open TG-GATES”
